{"source": "patent US20060210584A1", "about": "“Method for preparing citrinin-free Monascus biomass and use of citrinin-free Monascus biomass” (priority 2005, published 2006)", "key": {"[1]": {"test": "Scavenging of DPPH radicals", "type": "biochemical", "details": "methanolic extract; absorbance 515 nm, 30 s", "method": "(§1) A freeze-dried sample of Example 1 was weighed and made up to 100 mg/mL in distilled water. The solution was autoclaved at 121° C. for 15 min. The supernatant was harvested after centrifugation at 4° C. was stored at −20° C. A serial dilution was then made with the stock aqueous extract into a series of increasing concentrations of the extracts up to 100 mg/mL solution. For the assay of the scavenging of DPPH radicals, a methanolic extract (membrane-filtered; 0.45 μm membrane, Acrodisc 4CR, PTEE) (replacing the solvent water with methanol and procedure stated in the first sentence) was used instead.\n1.8 mL of a methanolic solution of DPPH (6×10^−5M 2,2-diphenyl-1-picrylhydrazyl) was added to 0.2 mL of a methanolic Monascus extract of variable concentrations (prepared as described above). The absorbance of the reaction mixture was measured at 515 nm exactly 30s after the DPPH solution was added. Vitamin E and methanol were used as positive and negative controls, respectively.\nThe inhibition rate (%) was calculated using the following formula: Inhibition rate (%)=(A−A1)/A×100%\nwhere A was the absorbance of the negative control, and A1 was that of the tested sample."}, "mouse": {"test_system": "mouse", "details": "cited from earlier work"}, "[2]": {"test_system": "microsomal lipid peroxidation", "test": "Inhibition of microsomal lipid peroxidation (MDA-TBA)", "type": "biochemical", "details": "rat liver microsomes, 10 μM FeSO4 and 0.1 mM ascorbic acid, 37° C. 60 min; aqueous extract", "method": "as §1\nNormal rats were sacrificed by cervical dislocation. The liver of the rats was rapidly homogenized in 0.25M of an ice-cold sucrose solution and the resultant solution was centrifuged at 12,000×g for 20 min at 4° C. The supernatant obtained was centrifuged at 15,000×g for 60 min at 4° C. […]\nThe microsomes (200-300 μg/mL) were incubated at 37° C. for 60 min with the extract sample of Monascus biomass at variable concentrations, 10 μM FeSO4 and 0.1 mM ascorbic acid in 1.0 mL of a phosphate buffered saline (PBS, 0.25M, pH7.4). […] After centrifugation of precipitated protein, the color reaction of MDA-TBA complex was detected at OD 532 nm. […]\nwhere A was the absorbance (OD532) of the negative control, and A1 was that of the tested sample."}, "[3]": {"test": "Scavenging of superoxide radicals (PMS-NADH/NBT)", "type": "biochemical", "details": "PMS-NADH system, NBT, OD 560 nm; aqueous extract", "method": "as §1\nSuperoxide radicals were generated in a PMS-NADH [phenazin methosulfate (PMS)-β-nicotinamide adenine dinucleotide (reduced from, NADH)] system by oxidation of NADH and assayed by the reduction of nitroblue tetrazolium (NBT). The superoxide radicals were generated in 3 mL of Tris-HCl buffer (16 mM, pH8.0), which contained 78 μM NADH, 50 μM NBT, 10 μM PMS and Monascus extracts at different concentrations to be tested. The color reaction between superoxide radicals and NBT was detected at OD 560 nm. L-ascorbic acid was used as a positive control. The inhibition rate (%) was calculated using the following formula: Inhibition rate (%)=(A−A1)/A×100%\nwhere A was the absorbance of a negative control (distilled water), and A1 was the absorbance of the tested sample."}, "[4]": {"test": "Reducing power (potassium ferricyanide)", "type": "biochemical", "details": "absorbance 700 nm", "method": "as §1\n2.5 mL of 1% potassium ferricyanide [K3Fe(CN)6] was added to 1.0 mL of an aqueous Monascus extract of variable concentrations (prepared as stated above). The resultant mixture was incubated at 50° C. for 20 min. 2.5 mL of trichloracetic acid (TCA, 10%) were added to the mixture. 2.5 mL of the resultant solution were mixed with 2.5 mL of distilled water and 0.5 mL of FeCl3 solution (0.1%). The absorbance was measured at 700 nm. Increased absorbance of the reaction mixture indicated an increase of reducing power. Vitamin C was used as a positive control in this experiment."}}, "data": [{"molecule": "Vitamin E", "values": [{"measurement": "effective concentration to give 50% inhibition, scavenging of DPPH radicals", "setting": "[1]", "value": 1, "unit": "mg/mL"}]}, {"molecule": "CC1=C2C(=CO[C@H](C)[C@H]2C)C(O)=C(C(=O)O)C1=O", "note": "[citrinin]", "values": [{"measurement": "LD50 (lethal dose causing decrease of 50% population)", "setting": "mouse", "value": 35, "unit": "mg/kg"}]}, {"molecule": "O=C1O[C@H]([C@@H](O)CO)C(O)=C1O", "note": "[Vitamin C, L-ascorbic acid]", "values": [{"measurement": "effective concentration giving 50% inhibition of microsomal lipid peroxidation", "setting": "[2]", "value": 0.1, "unit": "mg/mL"}, {"measurement": "effective concentration giving 50% inhibition, scavenging of superoxide radicals", "setting": "[3]", "value": 1.5, "unit": "mg/mL"}, {"measurement": "reducing power, concentration range of action", "setting": "[4]", "value": "less than 1 mg/mL"}]}]}
